species on record: Mus musculus; experiment: Hepatotoxicity in mouse assessed as carcinogenic potency; details: in vivo

SMILES	pTD50
Nc1cc(Cl)c(N)c(Cl)c1	1.941
Cc1ccc([N+](=O)[O-])cc1N	2.74
Nc1ccc(Sc2ccc(N)cc2)cc1 [4,4'-THIODIANILINE]	3.809
ClCC(Cl)(Cl)Cl	2.419
Cc1noc(NS(=O)(=O)c2ccc(N)cc2)c1C [SULFISOXAZOLE]	2.004
ClC(Cl)Br [BROMODICHLOROMETHANE]	3.056
Nc1cccc2c(N)cccc12	3.14
C=C(Cl)CSC(=S)N(CC)CC [SULFALLATE]	3.32
O=NN(O)c1ccccc1 [CUPFERRON]	2.439
CC(Cl)(Cl)Cl [TRICHLOROETHANE]	3.38
C1COCCO1 [DIOXANE]	1.883
C1CCOC1 [TETRAHYDROFURAN]	1.233
ClC(Cl)=C(c1ccc(Cl)cc1)c1ccc(Cl)cc1 [DICHLORODIPHENYLDICHLOROETHYLENE]	4.492
ClC(Cl)(Cl)C(Cl)(Cl)Cl [HEXACHLOROETHANE]	2.683
Clc1cc2c(cc1Cl)Oc1cc(Cl)c(Cl)cc1O2 [2,3,7,8-TETRACHLORODIBENZO-P-DIOXIN]	8.867
Cc1ccc(N)cc1N	3.66
O=C1NC(=O)C(c2ccccc2)(c2ccccc2)N1 [PHENYTOIN]	3.18
C=C(C)[C@H]1CC=C(C)CC1 [D-LIMONENE]	1.113
ClC=C(Cl)Cl [TRICHLOROETHYLENE]	2.16
Nc1ccc(Cl)cc1N	1.73
Nc1ccc2c(c1)C(=O)c1ccccc1C2=O	2.185
O=[N+]([O-])c1ccc2c3c(cccc13)CC2	3.638
CCCN(CCC)c1c([N+](=O)[O-])cc(C(F)(F)F)cc1[N+](=O)[O-] [TRIFLURALIN]	2.96
CCOC(=O)C(O)(c1ccc(Cl)cc1)c1ccc(Cl)cc1 [CHLOROBENZILATE]	2.862
O=C(O)c1cc(/N=N/c2ccc(S(=O)(=O)Nc3ccccn3)cc2)ccc1O [SULFASALAZINE]	1.866
C=CC=C [BUTADIENE]	3.091
ClC(Cl)C(Cl)Cl [1,1,2,2-TETRACHLOROETHANE]	3.63

SMILES	pTD50
ClC(Cl)C(Cl)(Cl)Cl [PENTACHLOROETHANE]	3.39
ClC(Cl)Cl [CHLOROFORM]	3.361
Cc1ccc(Cl)cc1N	2.77
FC(F)=C(F)F [TETRAFLUOROETHYLENE]	2.907
ClC(Cl)=C(Cl)Cl [TETRACHLOROETHYLENE]	3.1
CN(C)c1ccc(C(=O)c2ccc(N(C)C)cc2)cc1 [MICHLER'S KETONE]	3.383
Nc1c(Br)cc(Br)c2c1C(=O)c1ccccc1C2=O [1-AMINO-2,4-DIBROMOANTHRA-QUINONE]	2.313
S=C1NCCN1 [ETHYLENE THIOUREA]	3.341
O=C1C2(Cl)C3(Cl)C4(Cl)C(Cl)(Cl)C5(Cl)C3(Cl)C1(Cl)C5(Cl)C24Cl (centres undefined) [KEPONE]	5.662
COc1ccc([N+](=O)[O-])cc1N	1.93
Nc1ccccc1C(=O)OC/C=C/c1ccccc1 [CINNAMYL ANTHRANILATE]	1.529
c1ccc(NNc2ccccc2)cc1 [HYDRAZOBENZENE]	3.793
Nc1cc(Cl)cc(C(=O)O)c1Cl [CHLORAMBEN]	1.607
COc1ccc(C)cc1N	2.639
Clc1ccc(Cl)cc1 [1,4-DICHLOROBENZENE]	2.328
CNc1ccc(N(CCO)CCO)cc1[N+](=O)[O-] [HC BLUE NO. 1]	2.953
C=CC(=C)Cl [CHLOROPRENE]	3.689
Nc1ccc(Cl)c(N)c1	1.9
Nc1ccc(Oc2ccc(N)cc2)cc1	2.9
ClCC(Cl)CCl [1,2,3-TRICHLOROPROPANE]	4.041
CCCl [ETHYL CHLORIDE]	0.93
O=[N+]([O-])c1ccc(Oc2ccc(Cl)cc2Cl)cc1 [NITROFEN]	3.203
ClCCl [METHYLENE CHLORIDE]	1.581
NC(=S)NNC(N)=S	1.423
O=[N+]([O-])c1ccc2[nH]cnc2c1	2.458
CCc1ccc(C(c2ccc(CC)cc2)C(Cl)Cl)cc1	1.988
Cc1cc(C)c(N)cc1C	4.344
